Source: patent US8691972B2, “Compounds and synthesis of tellurium-derivatized oligonucleotides for structural and functional studies” (priority 2009, dated 2014)
Where “and” joins values, the source holds several entries; their conditions need not be identical. Identical values can stand only once.

Assays:
[1] = system: 3′-CGGACAAGAAG-5′ (complementary DNA strand); assay: Thermo-denaturation (UV-melting, 260 nm) of non-self-complementary DNA duplex; type: physicochemical; details: for average Tm (melting temperature) of the duplex: duplex 5′-C(2′-TeX-dU)TCTTGTCCG-3′ & 3′-CGGACAAGAAG-5′, four measurements, 50 mM NaCl, 10 mM phosphate pH 6.5, 0.1 mM EDTA, 10 mM MgCl2, 0.5° C./min
Description: (§1) Solution of the duplex DNA (2 uM) was prepared by dissolving the DNAs in a buffer containing 50 mM NaCl, 10 mM NaH2PO4—Na2HPO4 (pH 6.5), 0.1 mM EDTA and 10 mM MgCl2. The solution was heated to 70° C. for 2 min and cooled slowly to room temperature, followed by storing at 4° C. for overnight before measurement. The Tm curves were acquired at 260 nm by heating the samples from 5 to 70° C. at a rate of 0.5° C./min using Cary 300 UV-Visible Spectrophotometer with a temperature controller. […] The samples (1 mM duplex) were heated from 6 to 75° C. with a rate of 0.5° C./min. The red, blue and green curves represent the native, 2′-TeMe and 2′-TePh duplex, respectively, and are labelled in FIG. 6. The average Tm (four measurements) for each duplex is: 44.0±0.1° C. (native), 40.7±0.1° C. (2′-TeMe) and 36.8±0.2° C. (2′-TePh). […] The samples (1 mM duplex) were heated from 6 to 70° C. with a rate of 0.5° C./min. The circle (red), diamond (blue) and hexagon (purple) curves represent the native, 2′-TeMe and 2′-TePh DNA duplexes, respectively, with the averaged Tm (four times): 39.4° C. (native), 28.6° C. (2′-TeMe) and 23.4° C. (2′-TePh).

[2] = system: self-complementary duplex [5′-G(2′-TeX-dU)GTACAC-3′]2; assay: Thermo-denaturation (UV-melting, 260 nm) of self-complementary DNA duplex; type: physicochemical; details: for averaged Tm of the duplex: self-complementary 8-mer 5′-G(2′-TeX-dU)GTACAC-3′, two modifications per duplex, four times, 0.5° C./min; for Tm decrease per modification: self-complementary duplex [5′-G(2′-TeX-dU)GTACAC-3′]2, compared with native; for Tm decrease compared with the native duplex: self-complementary duplex [5′-G(2′-TeX-dU)GTACAC-3′]2, double Te-modification
Description: as §1

## 5′-C(2′-TeX-dU)TCTTGTCCG-3′&3′-CGGACAAGAAG-5′ [2′-TeMe duplex]
[1]
  average Tm (melting temperature) of the duplex: 40.7±0.1 °C and 40.7 °C
[1]; non-self-complementary duplex 5′-C(2′-TeX-dU)TCTTGTCCG-3′ and 5′-CGGACAAGA-AG-3′
  difference in melting temperature between native and modified DNA: 3.3 °C

## 5′-C(2′-TeX-dU)TCTTGTCCG-3′&3′-CGGACAAGAAG-5′ [2′-TePh duplex]
[1]
  average Tm (melting temperature) of the duplex: 36.8±0.2 °C and 36.8 °C

## 5′-C(2′-TeX-dU)TCTTGTCCG-3′&3′-CGGACAAGAAG-5′ [native duplex, reference compound]
[1]
  average Tm (melting temperature) of the duplex: 44.0±0.1 °C and 44.0 °C

## [5′-G(2′-TeX-dU)GTACAC-3′, X=Ph or Me]2 [2′-TeMe DNA duplex]
[2]
  averaged Tm of the duplex: 28.6 °C
  Tm decrease per modification: 5.0 °C
  Tm decrease compared with the native duplex: 10 °C

## [5′-G(2′-TeX-dU)GTACAC-3′, X=Ph or Me]2 [2′-TePh DNA duplex]
[2]
  averaged Tm of the duplex: 23.4 °C
  Tm decrease per modification: 7.5 °C
  Tm decrease compared with the native duplex: 15 °C
